Measured values reported in patent publication US20260078089A1, “BIOACTIVE PHYTOCHEMICALS IN ZIZYPHUS AND GUARANA” (Phytoquest Limited, priority 2018, published 2026).

Legend:
Assay in all cases: Glycosidase assay, p-nitrophenyl substrate
Assay type in all cases: biochemical
[1] = target: T1, N-acetyl-β-D-hexosaminidase (Aspergillus oryzae, UniProt Q8J2T0); details: Aspergillus oryzae enzyme; screened at 0.14 mg mL−1 (footnote: 0.4 mM)
T1 construct: purchased Sigma Aldrich Chemicals Limited
Method: (§1) Glycosidase assays were conducted as described by Watson et al. (Phytochemistry 1997, 46, 255) using p-nitrophenyl-substrates (except sialidase which used methylumbeliferyl-N-acetyineuraminic acid as substrate). Assays were carried out in microtitre plates. Enzymes were assayed in 0.1 M citric acid/0.2 M di-sodium hydrogen phosphate (McIlvaine) buffers at the optimum pH for the enzyme. All assays were carried out at 20° C. All enzymes and substrates were purchased from Sigma Aldrich Chemicals Limited. The incubation mixture consisted of 10 μl of enzyme solution, 10 μl of the iminosugars solution and 50 μl of the appropriate 5 mM p-nitrophenyl substrate made up in McIlvaine buffer at the optimum pH for the enzyme. The reactions were stopped with 0.4 M glycine (pH 10.4) during the exponential phase of the reaction. Absorbances were read at 405 nm. Water was substituted for the alkaloids in the blanks. Reactions were carried out in triplicate.
(§2) Enzyme inhibitor solutions—Compounds were dissolved in distilled water at a concentration of 1 mg mL^−1 and then screened at a concentration of 0.14 mg mL^−1 after dilution of the 1 mg mL^−1 in the assay volumes of substrates.

[2] = test system: N-acetyl-β-D-glucosaminidase; details: screened at 0.14 mg mL−1 (footnote: 0.4 mM)
Method: as §1, §2

α-D-glucosidase [3] = details: Bacillus sterothermphilus enzyme; screened at 0.14 mg mL−1 (footnote: 0.4 mM)
Method: as §1, §2

α-L-fucosidase = target: T2, α-L-fucosidase (Bos taurus, UniProt Q2KIM0); details: Bovine kidney enzyme; screened at 0.14 mg mL−1 (footnote: 0.4 mM)
T2 construct: purchased Sigma Aldrich Chemicals Limited
T2 sequence (Q2KIM0 23-468): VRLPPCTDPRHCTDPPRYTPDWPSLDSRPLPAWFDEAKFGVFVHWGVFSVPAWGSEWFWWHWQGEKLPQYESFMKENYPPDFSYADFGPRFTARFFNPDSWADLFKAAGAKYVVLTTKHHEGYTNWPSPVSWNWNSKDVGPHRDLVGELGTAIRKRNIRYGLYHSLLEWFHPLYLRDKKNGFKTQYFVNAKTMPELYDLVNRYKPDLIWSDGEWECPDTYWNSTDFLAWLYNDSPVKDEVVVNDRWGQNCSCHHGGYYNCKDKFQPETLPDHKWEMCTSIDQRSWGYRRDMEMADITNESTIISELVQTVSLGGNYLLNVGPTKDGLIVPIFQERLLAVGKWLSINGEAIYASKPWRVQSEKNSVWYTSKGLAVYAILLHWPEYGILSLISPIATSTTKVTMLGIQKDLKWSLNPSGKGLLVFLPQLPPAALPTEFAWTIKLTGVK
Method: as §1, §2

α-D-mannosidase = target: T3, α-D-mannosidase (Canavalia ensiformis, UniProt C0HJB3); details: Jack bean enzyme; screened at 0.14 mg mL−1 (footnote: 0.4 mM)
T3 construct: purchased Sigma Aldrich Chemicals Limited
T3 sequence (C0HJB3 1-981): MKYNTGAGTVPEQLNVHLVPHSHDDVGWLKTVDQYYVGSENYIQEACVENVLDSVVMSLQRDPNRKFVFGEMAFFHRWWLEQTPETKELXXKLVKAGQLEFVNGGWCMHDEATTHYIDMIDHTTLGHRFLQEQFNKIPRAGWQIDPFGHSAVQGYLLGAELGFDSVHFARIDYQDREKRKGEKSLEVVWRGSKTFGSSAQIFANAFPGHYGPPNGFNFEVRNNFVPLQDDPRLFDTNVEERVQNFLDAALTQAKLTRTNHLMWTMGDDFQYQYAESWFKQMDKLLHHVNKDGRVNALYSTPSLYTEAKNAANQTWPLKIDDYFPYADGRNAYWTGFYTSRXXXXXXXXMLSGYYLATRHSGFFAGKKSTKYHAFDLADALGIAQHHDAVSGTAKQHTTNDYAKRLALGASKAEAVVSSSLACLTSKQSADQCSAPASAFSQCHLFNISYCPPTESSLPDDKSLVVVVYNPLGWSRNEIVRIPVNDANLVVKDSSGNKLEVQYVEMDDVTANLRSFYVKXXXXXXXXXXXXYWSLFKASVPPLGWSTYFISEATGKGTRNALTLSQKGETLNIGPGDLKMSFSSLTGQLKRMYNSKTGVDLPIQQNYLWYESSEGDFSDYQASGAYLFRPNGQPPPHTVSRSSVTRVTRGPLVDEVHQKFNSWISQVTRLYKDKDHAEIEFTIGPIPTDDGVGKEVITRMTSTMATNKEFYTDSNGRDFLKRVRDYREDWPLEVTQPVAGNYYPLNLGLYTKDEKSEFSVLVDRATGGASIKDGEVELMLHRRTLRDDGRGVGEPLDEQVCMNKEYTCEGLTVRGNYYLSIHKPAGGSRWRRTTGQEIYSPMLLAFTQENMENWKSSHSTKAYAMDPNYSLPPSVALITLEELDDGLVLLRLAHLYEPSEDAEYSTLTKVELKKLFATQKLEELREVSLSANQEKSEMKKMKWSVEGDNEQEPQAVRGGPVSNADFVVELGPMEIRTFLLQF
Method: as §1, §2

α-D-glucosidase [4] = target: T4, α-D-glucosidase (Saccharomyces cerevisiae, UniProt P53341); details: Saccharomyces cerevisiae enzyme; screened at 0.14 mg mL−1 (footnote: 0.4 mM); 20° C
T4 construct: purchased Sigma Aldrich Chemicals Limited
Method: as §1, §2

β-D-glucosidase = details: Almond enzyme; screened at 0.14 mg mL−1 (footnote: 0.4 mM)
Method: as §1, §2

β-D-mannosidase = details: Cellullomonas fimi enzyme; screened at 0.14 mg mL−1 (footnote: 0.4 mM)
Method: as §1, §2

T1 sequence (Q8J2T0 97-600): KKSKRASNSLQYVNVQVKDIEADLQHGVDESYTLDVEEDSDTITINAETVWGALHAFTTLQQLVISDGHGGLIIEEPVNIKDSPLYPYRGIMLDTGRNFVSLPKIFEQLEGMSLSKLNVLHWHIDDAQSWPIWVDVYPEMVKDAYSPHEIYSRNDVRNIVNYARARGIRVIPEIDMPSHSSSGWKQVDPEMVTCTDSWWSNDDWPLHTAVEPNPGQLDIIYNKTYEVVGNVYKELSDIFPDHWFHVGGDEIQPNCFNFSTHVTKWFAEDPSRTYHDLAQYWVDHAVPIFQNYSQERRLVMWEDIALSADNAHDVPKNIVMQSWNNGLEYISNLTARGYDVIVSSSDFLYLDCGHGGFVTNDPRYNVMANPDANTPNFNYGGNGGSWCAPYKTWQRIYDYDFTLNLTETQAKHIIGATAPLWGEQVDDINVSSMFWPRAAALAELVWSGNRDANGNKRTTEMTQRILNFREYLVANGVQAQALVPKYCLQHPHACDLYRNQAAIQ
T4 sequence (P53341 whole entry): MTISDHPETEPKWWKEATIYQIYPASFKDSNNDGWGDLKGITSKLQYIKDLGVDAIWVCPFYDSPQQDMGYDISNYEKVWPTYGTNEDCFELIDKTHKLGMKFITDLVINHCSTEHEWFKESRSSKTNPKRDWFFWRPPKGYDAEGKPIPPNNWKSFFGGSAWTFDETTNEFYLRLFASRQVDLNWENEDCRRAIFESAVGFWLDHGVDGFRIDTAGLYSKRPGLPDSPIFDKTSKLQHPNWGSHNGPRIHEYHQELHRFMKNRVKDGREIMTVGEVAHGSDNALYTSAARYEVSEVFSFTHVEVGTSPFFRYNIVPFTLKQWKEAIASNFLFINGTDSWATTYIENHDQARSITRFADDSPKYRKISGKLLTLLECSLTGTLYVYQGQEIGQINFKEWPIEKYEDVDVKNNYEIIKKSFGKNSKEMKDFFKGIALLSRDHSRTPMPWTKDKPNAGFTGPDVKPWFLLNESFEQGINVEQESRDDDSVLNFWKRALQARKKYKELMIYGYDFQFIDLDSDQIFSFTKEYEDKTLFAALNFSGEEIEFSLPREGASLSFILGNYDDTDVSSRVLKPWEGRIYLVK

SMILES: OC[C@H]1N[C@H](CO)[C@@H](O)[C@@H]1O [DMDP]
- % inhibition [1]: 5.62%
- % inhibition ([2]; Bovine kidney enzyme): −7.60%
- % inhibition ([2]; Jack bean enzyme): −6.65%
- % inhibition (α-D-glucosidase [3]): 92.98%
- % inhibition (α-L-fucosidase): 4.84%
- % inhibition (α-D-mannosidase): 2.70%
- % inhibition (α-D-glucosidase [4]): 97.37%
- % inhibition (β-D-glucosidase): 96.61%
- % inhibition (β-D-mannosidase): 93.34%
